Experimental findings from patent US12497365B2, “4-pyridinyl formamide compound or derivative thereof, preparation method therefor, herbicidal composition and use thereof” (Qingdao Kingagroot Chemical Compound Co., Ltd., priority 2019, dated 2025) are described below.

The subject of one series is Alopecurus myosuroides. Kind of series: Weeding effect in post-emergence stage. Format: in vivo. To be noted: active ingredient 250 g/ha. The text has this: (§1) The activity level criteria for plant damage (i.e., growth control rate) are as follows:
(§2) The above growth control rates are fresh weight control rates.
(§3) Experiment on weeding effect in post-emergence stage: monocotyledonous and dicotyledonous weed seeds and major crop seeds (wheat, corn, rice, soybean, cotton, oilseed rape, millet, sorghum) were placed in plastic pots filled with soil, then covered with 0.5-2 cm of soil, allowed to grow in a good greenhouse environment. After 2 weeks of sowing, the test plants were treated in the 2-3 leaf stage. The tested compounds of the present invention were respectively dissolved in acetone at the dosage of 2000, 1000, 500, 250, 125 g/ha, then added with Tween 80 and 1.5 liter/ha of emulsifiable concentrate of methyl oleate as synergist, diluted with a certain amount of water to obtain a solution with a certain concentration, and sprayed with a spray tower onto the plants. After the application, the plants were cultured for 3 weeks in the greenhouse, and then the experimental results were listed in Table 1.
(§4) In addition, under the active ingredient of 250 g/ha, many compounds also show good crop selectivity and excellent control effect on key weeds.

A further series has as its system Sclerochloa dura. As to the kind of experiment: Weeding effect in post-emergence stage. Format: in vivo. The settings on record: active ingredient 250 g/ha.
Source text: as §1, §2, §3, §4

The next series concerns Alopecurus aequalis. As to the kind of experiment: Weeding effect in post-emergence stage. Format: in vivo. The settings on record: active ingredient 250 g/ha.
Source text: as §1, §2, §3, §4

Another series has as its system Beckmannia syzigachne. Kind of series: Weeding effect in post-emergence stage. Format: in vivo. The settings on record: active ingredient 250 g/ha.
Source text: as §1, §2, §3, §4

For another series, the system named is Wheat. As to the kind of experiment: Crop selectivity in post-emergence stage. The series is classed as in vivo. To be noted: active ingredient 250 g/ha.
Source text: as §1, §2, §3, §4

The next series concerns Chenopodium album. Kind of series: Weeding effect in post-emergence stage. To be noted: active ingredient 2000 g/ha, 3 weeks after application, fresh weight control rate. The series is classed as in vivo. Summed up: (§5)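 Pot-grown weeds at the 2-3 leaf stage receive a tower spray of test compound at 2000, 1000, 500, 250 or 125 g/ha, formulated in acetone with Tween 80 and methyl oleate synergist. Fresh weight reduction is rated on an activity scale 3 weeks later.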

Another series deals with Abutilon theophrasti. Kind of series: Weeding effect in post-emergence stage. The series is classed as in vivo. To be noted: active ingredient 2000 g/ha, 3 weeks after application, fresh weight control rate. Summed up: as §5
The test system of series [1] is Amaranthus retroflexus L. As to the kind of experiment: Weeding effect in post-emergence stage. Format: in vivo. To be noted: active ingredient 2000 g/ha, 3 weeks after application, fresh weight control rate. Summed up: as §5
For a further series, the system named is Descurainia sophia. As to the kind of experiment: Weeding effect in post-emergence stage. The series is classed as in vivo. To be noted: for Activity level (growth control rate), Descurainia sophia: active ingredient 250 g/ha; for Weeding effect, activity level (growth control rate), Descurainia sophia: active ingredient 2000 g/ha, 3 weeks after application, fresh weight control rate. In outline: as §5

Series [2] deals with Echinochloa crusgalli, Scirpus juncoides, Bidens tripartita L., Sagittaria trifolia, Monochoria vaginalis. As to the kind of experiment: Weed control effect evaluation in rice field. The series is classed as in vivo, rice field weeds. The settings on record: weed seeds collected from Heilongjiang Province of China. From the text:
Transplanted rice safety evaluation and weed control effect evaluation in rice field:
Rice field soil was loaded into a 1/1,000,000 ha pot. The seeds of Echinochloa crusgalli, Scirpus juncoides, Bidens tripartita L., Sagittaria trifolia, and Monochoria vaginalis were sowed and gently covered with soil, then left to stand still in greenhouse in the state of 0.5-1 cm of water storage. The tuber of Sagittaria trifolia was planted in the next day or 2 days later. It was kept at 3-4 cm of water storage thereafter. The weeds were treated by dripping the WP or SC water diluents prepared according to the common preparation method of the compounds of the present invention with pipette homogeneously to achieve specified effective amount when Echinochloa crusgalli, Scirpus juncoides, Bidens tripartita L., and Monochoria vaginalis reached 0.5 leaf stage and Sagittaria trifolia reached the time point of primary leaf stage.
The fertility condition of Echinochloa crusgalli, Scirpus juncoides, Bidens tripartita L., Sagittaria trifolia and Monochoria vaginalis 14 days after the treatment of the compound of the invention and the fertility condition of rice 21 days after the treatment of the compound of the invention respectively with the naked eye. Evaluate the weed control effect with the above 0-5 activity standard level, many compounds show excellent activity and selectivity. […]

With `Cn1nnnc1NC(=O)c1ccnc(-c2ccccc2F)c1Cl` [Compound 1-15], the “Activity level (growth control rate), Alopecurus myosuroides” value (“Activity level … Alopecurus myosuroides” below) with Alopecurus myosuroides is reported as 5 (Level 5: growth control rate is above 85%). In addition, the “Activity level (growth control rate), Sclerochloa dura” value (“Activity level … Sclerochloa dura” for short) in the series with Sclerochloa dura was 5 (Level 5: growth control rate is above 85%). Further, the “Activity level (growth control rate), Alopecurus aequalis” value (“Activity level … Alopecurus aequalis” below) in the series with Alopecurus aequalis is 5 (Level 5: growth control rate is above 85%). Also, the “Activity level (growth control rate), Beckmannia syzigachne” value (from here on “Activity level … Beckmannia syzigachne”) with Beckmannia syzigachne was 5 (Level 5: growth control rate is above 85%). Also, the “Plant damage level (growth control rate), Wheat” value (“Plant damage level” for short) in the series on Wheat was 0 (Level 0: growth control rate is less than 5%). Also, the “Weeding effect, activity level (growth control rate), Chenopodium album” value (“Weeding effect … Chenopodium album” for short) in the series on Chenopodium album is on record as 5 (Level 5: growth control rate is above 85%). Moreover, in the series on Abutilon theophrasti, the “Weeding effect, activity level (growth control rate), Abutilon theophrasti” value (“Weeding effect … Abutilon theophrasti” for short) is reported as 5 (Level 5: growth control rate is above 85%). Moreover, in series [1], the “Weeding effect, activity level (growth control rate), Amaranthus retroflexus L.” value (“Weeding effect … Amaranthus retroflexus L.” below) is recorded as 5 (Level 5: growth control rate is above 85%). Further, in the series with Descurainia sophia, the “Activity level (growth control rate), Descurainia sophia” value is reported as 5 (Level 5: growth control rate is above 85%) and the “Weeding effect, activity level (growth control rate), Descurainia sophia” value (“Weeding effect … Descurainia sophia” below) is given as 5 (Level 5: growth control rate is above 85%).

For the compound `Cn1nnnc1NC(=O)c1ccnc(-c2ccc(F)cc2)c1Cl` [Compound 1-17], the “Activity level … Alopecurus myosuroides” value with Alopecurus myosuroides is 5 (Level 5: growth control rate is above 85%). For the same compound, the “Activity level … Sclerochloa dura” value with Sclerochloa dura is 5 (Level 5: growth control rate is above 85%). In the series on Alopecurus aequalis, the “Activity level … Alopecurus aequalis” value was 5 (Level 5: growth control rate is above 85%). In addition, the “Activity level … Beckmannia syzigachne” value with Beckmannia syzigachne was 5 (Level 5: growth control rate is above 85%). In the series on Wheat, the “Plant damage level” value is recorded as 0 (Level 0: growth control rate is less than 5%). Moreover, the “Weeding effect … Chenopodium album” value in the series on Chenopodium album is given as 5 (Level 5: growth control rate is above 85%). For the same compound, in the series with Abutilon theophrasti, the “Weeding effect … Abutilon theophrasti” value is 5 (Level 5: growth control rate is above 85%). In addition, the “Weeding effect … Amaranthus retroflexus L.” value in [1] is listed as 5 (Level 5: growth control rate is above 85%). For the same compound, in the series on Descurainia sophia, the “Activity level (growth control rate), Descurainia sophia” value is recorded as 5 (Level 5: growth control rate is above 85%) and the “Weeding effect … Descurainia sophia” value is 5 (Level 5: growth control rate is above 85%).

With `CCC[S+]([O-])c1nccc(C(=O)Nc2nnnn2C)c1Cl` (stereo not shown) [Compound 1-2070], in the series with Chenopodium album, the “Weeding effect … Chenopodium album” value was 5 (Level 5: growth control rate is above 85%). Also, in the series with Abutilon theophrasti, the “Weeding effect … Abutilon theophrasti” value is recorded as 5 (Level 5: growth control rate is above 85%). Moreover, in series [1], the “Weeding effect … Amaranthus retroflexus L.” value is on record as 5 (Level 5: growth control rate is above 85%). In addition, the “Weeding effect … Descurainia sophia” value in the series on Descurainia sophia is 5 (Level 5: growth control rate is above 85%).

Take `CCCS(=O)(=O)c1nccc(C(=O)Nc2nnnn2C)c1Cl` [Compound 1-2071]: the “Weeding effect … Chenopodium album” value with Chenopodium album was 5 (Level 5: growth control rate is above 85%). Further, in the series on Abutilon theophrasti, the “Weeding effect … Abutilon theophrasti” value is reported as 5 (Level 5: growth control rate is above 85%). Also, in [1], the “Weeding effect … Amaranthus retroflexus L.” value was 5 (Level 5: growth control rate is above 85%). Further, the “Weeding effect … Descurainia sophia” value in the series with Descurainia sophia is 5 (Level 5: growth control rate is above 85%).

Regarding `Cn1nnnc1NC(=O)c1ccnc(Nc2ccccc2)c1Cl` [Compound 1-2075], the “Weeding effect … Chenopodium album” value in the series with Chenopodium album is reported as 5 (Level 5: growth control rate is above 85%). Further, the “Weeding effect … Abutilon theophrasti” value in the series with Abutilon theophrasti is reported as 5 (Level 5: growth control rate is above 85%). Moreover, in series [1], the “Weeding effect … Amaranthus retroflexus L.” value was 5 (Level 5: growth control rate is above 85%). The “Weeding effect … Descurainia sophia” value in the series on Descurainia sophia is recorded as 5 (Level 5: growth control rate is above 85%).

For `Cc1nonc1NC(=O)c1ccnc(C)c1Cl` [Control compound A, reference compound], the “Activity level … Alopecurus myosuroides” value in the series on Alopecurus myosuroides is recorded as 0 (Level 0: growth control rate is less than 5%). Moreover, in the series on Sclerochloa dura, the “Activity level … Sclerochloa dura” value is listed as 0 (Level 0: growth control rate is less than 5%). Besides, the “Activity level … Alopecurus aequalis” value with Alopecurus aequalis is given as 0 (Level 0: growth control rate is less than 5%). Moreover, in the series with Beckmannia syzigachne, the “Activity level … Beckmannia syzigachne” value is 0 (Level 0: growth control rate is less than 5%). Besides, the “Plant damage level” value with Wheat is 0 (Level 0: growth control rate is less than 5%). In the series on Descurainia sophia, the “Activity level (growth control rate), Descurainia sophia” value is given as 0 (Level 0: growth control rate is less than 5%).

Regarding `COc1cnc(OC)n2nc(NS(=O)(=O)c3c(OCC(F)F)cccc3C(F)(F)F)nc12` [Penoxsulam, penoxsulam], the “Response of the rice field weeds to common doses of the herbicide” value in series [2] is on record as “resistant”.

For the compound `CCOC(=O)c1cnn(C)c1S(=O)(=O)NC(=O)Nc1nc(OC)cc(OC)n1` [Pyrazosulfuron-ethyl, pyrazosulfuron-ethyl], the “Response of the rice field weeds to common doses of the herbicide” value in series [2] is recorded as “resistant”.
